Data set [1] addresses T1, PTP1B (human recombinant) (Homo sapiens, UniProt P18031).
T1 construct: purchased Biomol International LP (Plymouth Meeting, PA, USA)
T1 sequence (P18031 1-435): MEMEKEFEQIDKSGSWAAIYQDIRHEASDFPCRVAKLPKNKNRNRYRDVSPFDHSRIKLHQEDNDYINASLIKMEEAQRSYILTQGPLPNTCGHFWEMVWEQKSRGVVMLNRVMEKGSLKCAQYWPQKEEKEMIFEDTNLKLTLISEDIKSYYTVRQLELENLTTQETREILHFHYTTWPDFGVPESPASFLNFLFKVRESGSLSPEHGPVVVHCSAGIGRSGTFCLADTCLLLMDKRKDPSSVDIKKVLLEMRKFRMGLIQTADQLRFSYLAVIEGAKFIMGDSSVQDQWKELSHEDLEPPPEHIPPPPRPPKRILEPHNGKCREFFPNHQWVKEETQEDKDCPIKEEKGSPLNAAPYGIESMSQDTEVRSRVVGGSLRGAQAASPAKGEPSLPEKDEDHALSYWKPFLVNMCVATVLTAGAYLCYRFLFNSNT
Briefly: Enzyme kinetic analysis of PTP1B inhibition (Dixon and Lineweaver-Burk plots). In kind it is biochemical. As to the method: (§1) Since the Ki value represents the concentration needed to form an enzyme-inhibitor complex, this value plays an important role in the development of preventive and therapeutic agents.
(§2) In order to determine the inhibition mechanism, enzymatic inhibition at various concentrations of alaternin was evaluated by monitoring the effects of different concentrations of the substrates via Dixon plots (single reciprocal plot). Dixon plots of inhibition of PTP1B by alaternin were obtained in the presence of different concentrations of substrate: 1.0, 0.5, and 0.25 mM of pNPP. The test concentrations of alaternin in the PTP1B kinetic analysis were 0, 0.8, and 4.0 µM. Dixon plots of α-glucosidase inhibition by alaternin were performed in the presence of different concentrations of substrate: 2.5, 1.25, and 0.625 mM of pNPG. The test concentrations of alaternin used in the α-glucosidase kinetic analysis were 0.97, 1.95, and 3.90 µM. Both enzymatic procedures consisted of the same, aforementioned PTP1B and α-glucosidase assay methods. The inhibition constants (Ki) were determined by interpretation of the Dixon plots, where the value of the x-axis implies −Ki.

Data set [2] relates to Yeast α-glucosidase. Briefly: Enzyme kinetic analysis of α-glucosidase inhibition (Dixon and Lineweaver-Burk plots). In kind it is biochemical. To be noted: for Inhibition type α-Glucosidase: Dixon plot and Lineweaver-Burk plot. The protocol:
as §1, §2

Data set [3] addresses T1, PTP1B (human recombinant). Briefly: Protein tyrosine phosphatase 1B (PTP1B) inhibition assay with pNPP as substrate. In kind it is biochemical. As to the method: The PTP1B inhibitory activities were evaluated using p-nitrophenyl phosphate as the substrate (pNPP) in a procedure reported by Cui et al.. Each well of a 96-well plate (final volume 100 μL) contained were 40 μL of PTP1B enzyme (0.5 units diluted with a PTP1B reaction buffer containing 50 mM citrate (pH 6.0), 0.1 M NaCl, 1 mM EDTA, and 1 mM dithiotheritol (DTT)), to which sample (test concentration up to 100 μg/mL) dissolved in 10% DMSO was or was not added. The plate was pre-incubated at 37 °C for 10 min, and then 50 μL of 2 mM pNPP in PTP1B reaction buffer was added. Following incubation at 37 °C for 30 min, the reaction was terminated with the addition of 10 M NaOH. The amounts of p-nitrophenyl produced after enzymatic dephosphorylation from pNPP was estimated by measuring the absorbance at 405 nm using microplate spectrophotometer (Molecular Devices). The non-enzymatic hydrolysis of 2 mM pNPP was corrected by measuring the increase in absorbance at 405 nm obtained in the absence of PTP1B enzyme. The percent inhibition (%) was obtained by the following equation: % inhibition = (Ac − As)/Ac × 100, where Ac is the absorbance of the control, and As is the absorbance of the sample.

The test system of a further data set is HepG2 cells. Briefly: MTT cytotoxicity assay on HepG2 cells. To be noted: HepG2 cells, MTT, 24 h. As to the method: Before determining the insulin resistance of alaternin and emodin, the cytotoxicity of alaternin and emodin on HepG2 cells was first measured by the MTT assay. […] To investigate the ability of alaternin and emodin to increase glucose uptake, a 2-[N-(7-nitrobenz-2-oxa-1,3-diazol-4-yl) amino]-2-deoxy-D-glucose (2-NBDG) uptake assay was performed with insulin-resistant HepG2 cells.

In data set [4] the target is Yeast α-glucosidase. Briefly: α-Glucosidase inhibitory assay with pNPG as substrate. In kind it is biochemical. The conditions noted are these: test concentration up to 400 µg/mL in 10% DMSO, triplicate. The protocol: Enzyme inhibition assays were carried out spectrophotometrically using a procedure reported by Li et al.. A 60 μL reaction mixture containing 20 μL of 100 mM phosphate buffer (pH 6.8), 20 μL of 2.5 mM pNPG, and 20 μL of sample (test concentration up to 400 μg/ml for compounds) dissolved in 10% DMSO was added to each well, followed by the addition of 20 μL of α-glucosidase (0.2 U/mL in 10 mM phosphate buffer (pH 6.8)). The plate was incubated at 37 °C for 15 min, and then 80 μL of 0.2 M sodium carbonate solution was added to stop the reaction. Right after that, the absorbance was recorded at 405 nm using a VERSA max microplate reader (Molecular Devices, Sunnyvale, CA, USA). The control contained the same reaction mixture with the same volume of phosphate buffer instead of sample solution. […] The percent inhibition (%) was obtained using the following equation: % Inhibition = (Ac − As)/Ac × 100, where Ac is the absorbance of the control, and As is the absorbance of the sample.

For data set [5], the system named is insulin-resistant HepG2 cells. Briefly: 2-NBDG glucose uptake assay in insulin-resistant HepG2 cells. In kind it is cell-based, human. The conditions noted are these: 12.5, 25, and 50 μM alaternin, 24 h, compared to the control. As to the method:
The HepG2 (human hepatocarcinoma) cell line was purchased from the American Type Culture Collection (HB-8065, Manassas, VA, USA). Cells were maintained in MEM containing 2.0 mM L-glutamine, 0.1 mM non-essential amino acids, 1.0 mM sodium pyruvate, and 10% FBS at 37 °C in a humidified atmosphere with 5% CO2. The medium was changed every 48 h. […] The establishment of an insulin-resistant HepG2 cell model and glucose uptake was performed according to the reported method, with slight modifications. Briefly, HepG2 cells were cultured in 96-well cluster plates. After reaching confluence, the cells were treated with 10^−6 mol/L insulin for 24 h to induce insulin resistance. […] After this incubation, the 2-NBDG uptake in insulin-resistant HepG2 cells was measured. The cells were incubated with 40 μM 2-NBDG for 30 min. To stop the response, cells were washed with ice-cold PBS and the fluorescence intensity of 2-NBDG was measured on a Synergy HT microplate reader (BioTek Instruments, Winooski, VT, USA) at 485 nm excitation and 528 nm emission. Six replicate wells were established and each experiment was repeated three times.

Molecules are shown by their SMILES.

As for `Cc1cc2c(c(O)c1O)C(=O)c1c(O)cc(O)cc1C2=O` [Alaternin, 2-hydroxy emodin], in data set [1] (Dixon plot and Lineweaver-Burk plot), the “Inhibition type PTP1B” value is “Competitive”. Further, the Ki in data set [1] (Dixon plot, pNPP 1.0, 0.5, 0.25 mM) was 1700 nM; on Yeast α-glucosidase [2] (Dixon plot, pNPG 2.5, 1.25, 0.625 mM), 660 nM. Moreover, the “Inhibition type α-Glucosidase” value is listed as “mixed type” in the data set on Yeast α-glucosidase [2] and “Mixed” with Yeast α-glucosidase [2] (listed as alaternin). The “PTP1B inhibitory activity compared with emodin” value in data set [3] (fold higher than emodin) is “three-fold higher”. The IC50 in data set [3] (pNPP substrate, test concentration up to 100 µg/mL in 10% DMSO, triplicate, read-out: PTP1B IC50 (Mean ± SEM) (converted)) is 4260 nM. The “concentration without any cytotoxicity” value in the data set with HepG2 cells is on record as “up to 50 µM”. At Yeast α-glucosidase [4], the “α-Glucosidase IC50 (Mean ± SEM)” value is listed as 0.99 ± 0.02 µg/mL. The “insulin-stimulated uptake of 2-NBDG” value in data set [5] is recorded as “significantly enhanced”.

The record behind these values is article PMC6155831, “Promising Inhibitory Effects of Anthraquinones, Naphthopyrone, and Naphthalene Glycosides, from Cassia obtusifolia on α-Glucosidase and Human Protein Tyrosine Phosphatases 1B” (Molecules : A Journal of Synthetic Chemistry and Natural …, 2016).
